The nature of data set [1]: Mutagenicity in CHOK1 cells assessed as induction of chromosomal DNA mutation by measuring nuclear division index level at 6.41 to 25.63 incubated for 3 hrs by fluorescence microscopy. The following applies: chinese hamster, cho-k1, 3 h. In kind it is toxicity, cell-based, Cricetulus griseus.
For data set [2], the system named is Salmonella typhimurium. The experiment in a line: Mutagenicity in Salmonella typhimurium TA98 assessed as mutagenicity index at 296.15 uM/plate incubated for 90 mins at 37 degC in absence of liver S9 fractions by Ames test relative to untreated control. The following applies: salmonella enterica subsp. enterica serovar typhimurium, 1.5 h. In kind it is toxicity, organism-based.

For data set [3], the system named is Salmonella typhimurium. The experiment in a line: Mutagenicity in Salmonella typhimurium TA98 assessed as mutagenicity index at 570.37 uM/plate incubated for 90 mins at 37 degC in absence of liver S9 fractions by Ames test relative to untreated control. In kind it is toxicity, organism-based. The following applies: salmonella enterica subsp. enterica serovar typhimurium, 1.5 h.

Data set [4] deals with Salmonella typhimurium. The experiment in a line: Mutagenicity in Salmonella typhimurium TA98 assessed as mutagenicity index at 435.85 uM/plate incubated for 90 mins at 37 degC in presence of liver S9 fractions by Ames test relative to untreated control. In kind it is toxicity, organism-based. The note with it: salmonella enterica subsp. enterica serovar typhimurium, s9, 1.5 h.

Data set [5] deals with Salmonella typhimurium. Kind of data set: Mutagenicity in Salmonella typhimurium TA98 assessed as mutagenicity index at 700.00 uM/plate incubated for 90 mins at 37 degC in presence of liver S9 fractions by Ames test relative to untreated control. In kind it is toxicity, organism-based. The following applies: salmonella enterica subsp. enterica serovar typhimurium, s9, 1.5 h.

The subject of data set [6] is Salmonella typhimurium. Kind of data set: Mutagenicity in Salmonella typhimurium TA100 assessed as mutagenicity index at 150.98 uM/plate incubated for 90 mins at 37 degC in absence of liver S9 fractions by Ames test relative to untreated control. The note with it: salmonella enterica subsp. enterica serovar typhimurium, 1.5 h. In kind it is toxicity, organism-based.

For data set [7], the system named is Salmonella typhimurium. The experiment in a line: Mutagenicity in Salmonella typhimurium TA100 assessed as mutagenicity index at 435.85 uM/plate incubated for 90 mins at 37 degC in absence of liver S9 fractions by Ames test relative to untreated control. In kind it is toxicity, organism-based. The note with it: salmonella enterica subsp. enterica serovar typhimurium, 1.5 h.

For data set [8], the system named is Salmonella typhimurium. Kind of data set: Mutagenicity in Salmonella typhimurium TA100 assessed as mutagenicity index at 700.00 uM/plate incubated for 90 mins at 37 degC in absence of liver S9 fractions by Ames test relative to untreated control. In kind it is toxicity, organism-based. The following applies: salmonella enterica subsp. enterica serovar typhimurium, 1.5 h.

The subject of data set [9] is Salmonella typhimurium. Kind of data set: Mutagenicity in Salmonella typhimurium TA97a assessed as mutagenicity index at 150.98 uM/plate incubated for 90 mins at 37 degC in presence of liver S9 fractions by Ames test relative to untreated control. In kind it is toxicity, organism-based. The following applies: salmonella enterica subsp. enterica serovar typhimurium, s9, 1.5 h.

Data set [10] concerns Salmonella typhimurium. Kind of data set: Mutagenicity in Salmonella typhimurium TA102 assessed as mutagenicity index at 570.37 uM/plate incubated for 90 mins at 37 degC in absence of liver S9 fractions by Ames test relative to untreated control. In kind it is toxicity, organism-based. The note with it: salmonella enterica subsp. enterica serovar typhimurium, 1.5 h.
Data set [11] deals with Salmonella typhimurium. The experiment in a line: Mutagenicity in Salmonella typhimurium TA102 assessed as mutagenicity index at 296.15 uM/plate incubated for 90 mins at 37 degC in presence of liver S9 fractions by Ames test relative to untreated control. The note with it: salmonella enterica subsp. enterica serovar typhimurium, s9, 1.5 h. In kind it is toxicity, organism-based.

The subject of data set [12] is Salmonella typhimurium. The experiment in a line: Mutagenicity in Salmonella typhimurium TA102 assessed as mutagenicity index at 435.85 uM/plate incubated for 90 mins at 37 degC in presence of liver S9 fractions by Ames test relative to untreated control. In kind it is toxicity, organism-based. The note with it: salmonella enterica subsp. enterica serovar typhimurium, s9, 1.5 h.

In data set [13] the test system is Salmonella typhimurium. The experiment in a line: Mutagenicity in Salmonella typhimurium TA102 assessed as mutagenicity index at 700.00 uM/plate incubated for 90 mins at 37 degC in presence of liver S9 fractions by Ames test relative to untreated control. In kind it is toxicity, organism-based. The note with it: salmonella enterica subsp. enterica serovar typhimurium, s9, 1.5 h.

In data set [14] the test system is Salmonella typhimurium. The experiment in a line: Mutagenicity in Salmonella typhimurium TA98 assessed as mutagenicity index at 905.66 uM/plate incubated for 90 mins at 37 degC in absence of liver S9 fractions by Ames test relative to control. In kind it is toxicity, organism-based. The following applies: salmonella enterica subsp. enterica serovar typhimurium, 1.5 h.

Data set [15] relates to Salmonella typhimurium. The experiment in a line: Mutagenicity in Salmonella typhimurium TA98 assessed as mutagenicity index at 1185.19 uM/plate incubated for 90 mins at 37 degC in absence of liver S9 fractions by Ames test relative to control. In kind it is toxicity, organism-based. The following applies: salmonella enterica subsp. enterica serovar typhimurium, 1.5 h.
Data set [16] relates to Salmonella typhimurium. The experiment in a line: Mutagenicity in Salmonella typhimurium TA98 assessed as mutagenicity index at 1454.55 uM/plate incubated for 90 mins at 37 degC in absence of liver S9 fractions by Ames test relative to control. In kind it is toxicity, organism-based. The following applies: salmonella enterica subsp. enterica serovar typhimurium, 1.5 h.
The test system of data set [17] is Salmonella typhimurium. Kind of data set: Mutagenicity in Salmonella typhimurium TA100 assessed as mutagenicity index at 313.73 uM/plate incubated for 90 mins at 37 degC in absence of liver S9 fractions by Ames test relative to control. In kind it is toxicity, organism-based. The following applies: salmonella enterica subsp. enterica serovar typhimurium, 1.5 h.

The subject of data set [18] is Salmonella typhimurium. Kind of data set: Mutagenicity in Salmonella typhimurium TA100 assessed as mutagenicity index at 616.38 uM/plate incubated for 90 mins at 37 degC in absence of liver S9 fractions by Ames test relative to control. In kind it is toxicity, organism-based. The note with it: salmonella enterica subsp. enterica serovar typhimurium, 1.5 h.
In data set [19] the test system is Salmonella typhimurium. The experiment in a line: Mutagenicity in Salmonella typhimurium TA100 assessed as mutagenicity index at 1185.19 uM/plate incubated for 90 mins at 37 degC in absence of liver S9 fractions by Ames test relative to control. In kind it is toxicity, organism-based. The note with it: salmonella enterica subsp. enterica serovar typhimurium, 1.5 h.

The test system of data set [20] is Salmonella typhimurium. Kind of data set: Mutagenicity in Salmonella typhimurium TA100 assessed as mutagenicity index at 1454.55 uM/plate incubated for 90 mins at 37 degC in presence of liver S9 fractions by Ames test relative to control. In kind it is toxicity, organism-based. The note with it: salmonella enterica subsp. enterica serovar typhimurium, s9, 1.5 h.

For data set [21], the system named is Salmonella typhimurium. The experiment in a line: Mutagenicity in Salmonella typhimurium TA97a assessed as mutagenicity index at 905.66 uM/plate incubated for 90 mins at 37 degC in presence of liver S9 fractions by Ames test relative to control. In kind it is toxicity, organism-based. The note with it: salmonella enterica subsp. enterica serovar typhimurium, s9, 1.5 h.

The subject of data set [22] is Salmonella typhimurium. The experiment in a line: Mutagenicity in Salmonella typhimurium TA97a assessed as mutagenicity index at 1185.19 uM/plate incubated for 90 mins at 37 degC in presence of liver S9 fractions by Ames test relative to control. The following applies: salmonella enterica subsp. enterica serovar typhimurium, s9, 1.5 h. In kind it is toxicity, organism-based.

The subject of data set [23] is Salmonella typhimurium. Kind of data set: Mutagenicity in Salmonella typhimurium TA97a assessed as mutagenicity index at 1454.55 uM/plate incubated for 90 mins at 37 degC in presence of liver S9 fractions by Ames test relative to control. In kind it is toxicity, organism-based. The note with it: salmonella enterica subsp. enterica serovar typhimurium, s9, 1.5 h.
The subject of data set [24] is Salmonella typhimurium. Kind of data set: Mutagenicity in Salmonella typhimurium TA102 assessed as mutagenicity index at 1454.55 uM/plate incubated for 90 mins at 37 degC in absence of liver S9 fractions by Ames test relative to control. The note with it: salmonella enterica subsp. enterica serovar typhimurium, 1.5 h. In kind it is toxicity, organism-based.
Data set [25] deals with Salmonella typhimurium. Kind of data set: Mutagenicity in Salmonella typhimurium TA102 assessed as mutagenicity index at 905.66 uM/plate incubated for 90 mins at 37 degC in presence of liver S9 fractions by Ames test relative to control. In kind it is toxicity, organism-based. The following applies: salmonella enterica subsp. enterica serovar typhimurium, s9, 1.5 h.
Data set [26] can be described thus: Mutagenicity in CHOK1 cells assessed as induction of chromosomal DNA mutation by measuring micronuclei level at 14.51 to 58.04 incubated for 3 hrs by cytokinesis-block micronucleus assay. The note with it: chinese hamster, cho-k1, 3 h. In kind it is toxicity, cell-based, Cricetulus griseus.

Structures are written as SMILES.

For the compound `CS(=O)(=O)OCCCCCCCCCCCCn1cc(CCCO)nn1`, the Activity entry in data set [1] is “Non-toxic”. The Activity_index in the data set with Salmonella typhimurium [2] came to 1.2; in the data set on Salmonella typhimurium [3], 1.3; in the data set with Salmonella typhimurium [4] it was 1.1; in the data set on Salmonella typhimurium [5], 1.2; in the data set on Salmonella typhimurium [6], 1.1; in the data set with Salmonella typhimurium [7] it was 1.2. In addition, the Activity_index in the data set with Salmonella typhimurium [8] is listed as 1; with Salmonella typhimurium [9] it was 0.9; with Salmonella typhimurium [10], 1; in the data set on Salmonella typhimurium [11] it was 1.3; in the data set with Salmonella typhimurium [12], 1.1; with Salmonella typhimurium [13], 1.4.
On to `CCOC(=O)c1cn(CCCCCCCCCOS(C)(=O)=O)nn1`, for which the Activity_index is 1.2 with Salmonella typhimurium [14]; 1.5 with Salmonella typhimurium [15]; 1.4 with Salmonella typhimurium [16]; 1.2 in the data set on Salmonella typhimurium [17]; 1.3 with Salmonella typhimurium [18]; 1.3 with Salmonella typhimurium [19]. For the same compound, the Activity_index with Salmonella typhimurium [20] was found to be 0.9; in the data set on Salmonella typhimurium [21] it was 0.9; in the data set on Salmonella typhimurium [22] it was 0.7; with Salmonella typhimurium [23], 0.8; with Salmonella typhimurium [24] it was 1.1; in the data set on Salmonella typhimurium [25], 1.3. In data set [26], the Activity entry is given as “Non-toxic”.

Source of the values: ChEMBL document CHEMBL3611972, “Leishmanicidal, antiproteolytic, and mutagenic evaluation of alkyltriazoles and alkylphosphocholines” (Eur J Med Chem, 2015).
